In paper PMC3242598, “Phase I study of BIBF 1120 with docetaxel and prednisone in metastatic chemo-naive hormone-refractory prostate cancer patients” (British Journal of Cancer, 2011):
Read-outs that look alike come from different tables or passages of the source.

How the values were obtained:
HRPC = conditions: cited from earlier work
[1] = Plasma pharmacokinetics of docetaxel (HPLC-MS/MS); assay type: in vivo; conditions: human, docetaxel 75 mg m^−2 IV + BIBF 1120 250 mg BID; for half-life: read-out: t1/2, gMean (gCV%) (converted); for Tmax / AUC(0-inf) / Cmax: iv; for Tmax: read-out: tmax, median and range; for AUC(0-inf): read-out: AUC0−∞, gMean (gCV%); for Cmax: read-out: Cmax, gMean (gCV%)
Description: Peripheral blood was collected on days 1, 2, 3, 8, and 15 of TCs 1 and 2, and on days 2 and 15 of TCs 3–6 to perform the PK/pharmacodynamic (PD) analysis. Plasma concentrations of BIBF 1120 were determined after the first dose over the time interval 0–24 h on day 2 of TCs 1 and 2 to investigate single-dose PK characteristics of BIBF 1120 on the day after administration of single doses of docetaxel. Levels of BIBF 1120 were also determined on days 8 and 15 of TCs 1 and 2 to investigate steady-state levels.
Plasma concentrations of BIBF 1120 and docetaxel were analysed by a validated method using high-performance liquid chromatography coupled with tandem mass spectrometry (HPLC-MS/MS) in the Department of Drug Metabolism and Pharmacokinetics (Boehringer Ingelheim Pharma GmbH & Co KG, Biberach, Germany). The assay comprises sample clean-up by automated solid-phase extraction in a 96-well plate format. Chromatography was achieved on an analytical C18 reversed phase HPLC column with gradient elution. The substance was detected and quantified by HPLC-MS/MS using electrospray ionisation in the positive ion mode. Docetaxel was analysed by HPLC-MS/MS using paclitaxel as an internal standard. The assay comprises sample clean-up by liquid–liquid extraction and chromatography on an analytical C18 reversed phase HPLC column with isocratic elution. […] The lower limit of quantification for BIBF 1120 and metabolites was 0.5 ng ml^−1 plasma, using a plasma volume of 200 μl. For docetaxel, the lower limit was 2.5 ng ml^−1 plasma, using a plasma volume of 100 μl.
The calculated parameters were plasmatic peak concentrations following the first dose (Cmax), half-life time (t1/2), area under the plasma concentration–time curve (AUCt), apparent clearance after oral administration, and apparent volume of distribution during the terminal phase.

Row | half-life ([1]; treatment cycle 2 (n=12)) | Tmax ([1]; treatment cycle 1 (n=12)) | Tmax ([1]; treatment cycle 2 (n=12)) | half-life ([1]; male, treatment cycle 1 (n=12)) | AUC(0-inf) ([1]; male, treatment cycle 1 (n=12)) | Cmax ([1]; male, treatment cycle 1 (n=12)) | AUC(0-inf) ([1]; male, treatment cycle 2 (n=12)) | Cmax ([1]; male, treatment cycle 2 (n=12)) | Structure (SMILES) | PSA response rates (HRPC; HRPC patients, ref Chi et al, 2008, Dror Michaelson et al, 2009, Sonpavde et al, 2010) | PSA responses (HRPC; docetaxel monotherapy or with estramustine, phase III, first-line metastatic HRPC, ref Petrylak et al, 2004, Tannock et al) | Median survival (HRPC; docetaxel with corticosteroid in HRPC, ref Petrylak et al, 2004, Tannock et al, Berthold et al, 2008)
1 | – | – | – | – | – | – | – | – | CCN(CC)CCNC(=O)c1c(C)[nH]c(/C=C2\C(=O)Nc3ccc(F)cc32)c1C [sunitinib] | 3.6–12.1% | – | –
2 | 19.4 h | 1.02 h | 1.01 h | 20.2 h | 1860 ng·h/mL | 1510 ng/mL | 2460 ng·h/mL | 1980 ng/mL | CC(=O)O[C@@]12CO[C@@H]1C[C@H](O)[C@@]1(C)C(=O)[C@H](O)C3=C(C)[C@@H](OC(=O)[C@H](O)[C@@H](NC(=O)OC(C)(C)C)c4ccccc4)C[C@@](O)([C@@H](OC(=O)c4ccccc4)[C@H]21)C3(C)C [docetaxel] | – | 45–50% | < 20 months
